Test results as given in PMC4197335, “Cancer-Selective Targeting of the NF-κB Survival Pathway with GADD45β/MKK7 Inhibitors” (Cancer Cell, 2014).

How the values were obtained:
[1] = test system: U266 MM cells; assay: cells; conditions: Homo sapiens, U-266, 48 h
[2] = test system: CD138+ cells from WM patients; assay: cells; conditions: Homo sapiens, 48 h, read-out: IC50 (WM; PCs (n= 2))
Text: (§1) Additional details are provided in Supplemental Experimental Procedures.
(§2) automated system (Becton Dick inson) and analyzed with FlowJo.

[3] = test system: human PBMCs; assay: cells; conditions: Homo sapiens, PBMC, 48 h, read-out: IC50 (normal; PBMCs)
Text: as §1, §2

[4] = test system: human mesenchymal stem cells (MSCs); assay: cells; conditions: Homo sapiens, Mesenchymal stem cells, 48 h, read-out: IC50 (normal; MCSs)
Text: as §1, §2

[5] = test system: mouse lymph node (LN) cells; assay: cells; conditions: Mus musculus, 48 h, read-out: IC50 (normal; lymph node cells)
Text: as §1, §2

[6] = test system: CD138+ cells from MM patients; assay: cells; conditions: Homo sapiens, 48 h, read-out: IC50 (MM; PCs (n = 8))
Text: as §1, §2

[7] = test system: mouse splenocytes; assay: cells; conditions: Mus musculus, Splenocyte, 48 h, read-out: IC50 (normal; splenocytes)
Text: as §1, §2

[8] = test system: human BMSCs; assay: cells; conditions: Homo sapiens, BMSC, 48 h, read-out: IC50 (normal; BMSCs)
Text: as §1, §2

[9] = test system: KMS-12 MM cells; assay: [3H]thymidine incorporation; type: cell-based; conditions: Homo sapiens, single agent at 48 hr
Description: as §1
Cell Proliferation, Cell Death, and Apoptosis Assays
W allac Trilux Microbeta 3 β -counter (Perk inElmer). Values were expressed as the percentage of the […]
respective untreated cultures. […]
splitting them as necessary during the assays. […]
previously (Riccardi and Nicoletti, 2006).
Cells were then f ixed in 70% ice- cold ethanol for 16 hr, washed in PBS, and treated with ribonuclease A (50 μg/mL) f or 30 min at room temperature. Samples were f inally stained with PI (50 µg/mL) in 0.1% sodium citrate buffer for 2 to 4 hr at 4°C in the dark , and data were acquired using a FACSCalibur automated system (Becton Dick inson) and analyzed with FlowJo.
The viability of primary CD138 + cells f rom patients was assessed using trypan blue exclusion assays (Mauro et al., 2011; Arnold et al., 2008), perf ormed as described above. Cells were seeded […]
Cell viability in the treated cultures was expressed as the percentage of cell survival relative to the survival observed in the respective untreated cultures, represented as 100%. […]
The activities of DTP3 and bortezomib in the U266 and KMS-12 myeloma cell lines, both as single agents and in combination, were determined using [3H]thymidine incorporation assays, performed as described above in “Cell Prolif eration, Cell Death, and Apoptosis Assays”. […]

IC50 [1]: 6 nM
IC50 [2]: 3.38 ± 2 nM
IC50 [6]: 8.7 ± 2.1 nM
IC50 [9]: 6 nM
SMILES: CC(C)C[C@H](NC(=O)[C@H](Cc1ccccc1)NC(=O)c1cnccn1)B(O)O [Bortezomib, reference compound]
IC50 [3]: 63.1 nM
IC50 [4]: 79.4 nM
IC50 [5]: 91.1 nM
IC50 [7]: 80 nM
IC50 [8]: 80 nM
